Experimental data published in patent US7833513B2, “Treatment of Alzheimer's Disease” (Rhode Island Hospital, priority 2004, dated 2010).
“Also recorded” adds a separate entry of the source.

How the values were obtained:
Type in all cases: in vivo, Long Evans rat
[1] = system: ic-STZ-induced neurodegeneration; experiment: ic-STZ ± PPAR agonist: brain histopathology (H&E); conditions: for preservation of cerebellar cortical architecture (H&E) / preservation of hippocampi and temporal lobes (H&E): 4 weeks after ic-STZ ± single IP PPAR agonist
Method: (§1) In addition, at 4 weeks of age, memory and learning were evaluated using a Morris Water Maze (R. W. Hickey, M. Akino, S. Strausbaugh, G. M. De Courten-Myers. Use of the Morris water maze and acoustic startle chamber to evaluate neurologic injury after asphyxial arrest in rats. Pediatr Res 39(1) (1996), 77-84). The procedures and use of rats in these experiments were approved by the Lifespan-Rhode Island Hospital IACUC committee.
(§2) Histopathological and Immunohistochemical Staining Studies: Whole fresh brains were immersion fixed in Histofix (Amresco, Solon, Ohio) and then sectioned in the coronal plane along standardized landmarks, embedded in paraffin, and processed for histopathological studies. In addition, fresh brains were sectioned in the coronal plane to obtain a ˜3 mm thick slice that flanked the infundibulum. The 3-mm brain slice was snap frozen between two slabs of dry ice, and then stored at −80° C. for later RNA and protein studies. The residual tissue was immersion fixed and processed for histopathological studies. […] As negative controls for the immunostaining reactions, either the primary antibody was omitted or non-relevant monoclonal antibody to Hepatitis B virus was used in place of the relevant antibody. Immunoreactivity was detected using the avidin-biotin horseradish peroxidase complex method (S. M. de la Monte, T. Luong, T. R. Neely, D. Robinson, J. R. Wands. Mitochondrial DNA damage as a mechanism of cell loss in Alzheimer's disease. Lab Invest 80(8) (2000), 1323-35). All sections were examined under code.

[2] = system: phospho-GSK-3β, GSK-3β, phospho-Tau, Tau; experiment: ic-STZ ± PPAR agonist: Western blot analysis of GSK-3β and Tau; conditions: hypothalamus
Method: as §1, with “On the same day, sub-sets of the ic-STZ group were given a single intra-peritoneal injection of vehicle (saline), or a PPAR-α (GW7647; 25 ug/Kg), PPAR-δ (L-165,041; 2 μg/Kg), or PPAR-γ (F-L-Leu; 20 μg/Kg) activator (CalBiochem, Carlsbad, Calif.). […] In” for “In”
Western Blot Analysis: Western blot analysis was used to assess the levels of Tau, phospho-Tau, GSK-3β, phospho-GSK-3β, and β-actin in temporal lobe tissue (E. J. Rivera, A. Goldin, N. Fulmer, R. Tavares, J. R. Wands, S. M. de la Monte, J. Alzheimers Dis 8(3) (2005), 247-68). Briefly, samples containing 40 μg protein were fractionated by sodium dodecyl sulfate, polyacrylamide gel electrophoresis (SDS-PAGE) (F. Ausubel, R. Brent, R. Kingston, D. Moore, J. Seidman, J. Smnith, et al. Current Protocols in Molecular Biology. (2000)). and transferred to PVDF membranes. Non-specific binding sites were adsorbed with SuperBlock-TBS (Pierce, Rockford, Ill.). Membranes were incubated over night at 4° C. with primary antibody (0.1-1 μg/ml-individually optimized) diluted in Tris-buffered saline (TBS; 50 mM Tris, 150 mM NaCl, pH 7.4) containing 0.5% bovine serum albumin, 0.05% Tween-20, and 0.025% NaN3 (TBST-BSA). Immunoreactivity was detected using horseradish peroxidase (HRP) conjugated IgG (Pierce, Rockford, Ill.) diluted to 1:50,000 in TBST+0.5% cassein, Western Lightning enhanced chemiluminescence reagents (Perkin Elmer Life Sciences Inc., Boston, Mass.), and digital imaging. Immunoreactivity was quantified using the Kodak Digital Science Imaging Station (NEN Life Sciences, Boston, Mass.).
PPAR Agonist Treatment Reduces ic-STZ-Mediated AD-Type Neurodegeneration: In AD, the neuronal cytoskeletal lesions that correlate with dementia, i.e. neurofibrillary tangles, dystrophic neuritis, and neuropil threads, contain insoluble fibrillar structures that are generated in part from hyper-phosphorylated Tau (K. Iqbal, C. Alonso Adel, S. Chen, M. O. Chohan, E. El-Akkad, C. X. Gong, et al. Tau pathology in Alzheimer disease and other tauopathies. Biochim Biophys Acta 1739(2-3) (2005), 198-210). […] J Alzheimers Dis 7(1) (2005), 63-80). […] Therefore, it was of interest to characterize the effects of PPAR agonists on GSK-3β activity and Tau phosphorylation in ic-STZ-treated brains. The levels of phospho-GSK-3β, GSK-3β, phospho-Tau, Tau, and β-actin ([…]) were examined in temporal lobe and hypothalamus homogenates by Western blot analysis. Immunoreactivity was detected and quantified by digital imaging, and the mean levels of protein expression and ratios of phospho-GSK-3β/GSK-3β and phospho-Tau/Tau measured in 4 replicate samples are depicted graphically (FIG. 31). Phospho-GSK-3β immunoreactivity was detected with antibodies directed against the Ser21/9 motif, corresponding to the inactivate form of the kinase.

[3] = system: GFAP, HNE, 8-OHdG, ChAT immunoreactivity; experiment: ic-STZ ± PPAR agonist: immunohistochemical staining of brain; conditions: for ChAT immunoreactivity: basal forebrain region; for 8-OHdG immunoreactivity / GFAP immunoreactivity / HNE immunoreactivity: temporal cortex
Method: as §2
Increased levels of 8-OHdG and 4-hydroxynonenol (HNE) have been detected in brains with AD (W. R. Markesbery, J. M. Carney. Oxidative alterations in Alzheimer's disease. Brain Pathol 9(1) (1999), 133-46, L. M. Sayre, D. A. Zelasko, P. L. Harris, G. Perry, R. G. Salomon, M. A. Smith. 4-Hydroxynonenal-derived advanced lipid peroxidation end products are increased in Alzheimer's disease. J Neurochem 68(5) (1997), 2092-7). […] In addition, it was of interest to relate indices of oxidative stress to GFAP immunoreactivity, which reflects astrocytic responses to tissue injury. Paraffin-embedded histological sections of brain were immunostained to detect GFAP, 8-OHdG or HNE using the ABC method with DAB as the chromogen (brown precipitate) and light hematoxylin as the counterstain.

SMILES | preservation of cerebellar cortical architecture (H&E) [1] | preservation of hippocampi and temporal lobes (H&E) [1] | phospho-GSK-3β level [2] | phospho-Tau level relative to control [2] | total Tau protein level [2] | ChAT immunoreactivity [3] | 8-OHdG immunoreactivity [3] | GFAP immunoreactivity [3] | HNE immunoreactivity [3] | share of temporal cortex thickness spanned by the horizontal scale bar ([1]; FIG. 25A-E, control 30%) [%]
CC(C)(Sc1ccc(CCN(CCCCC2CCCCC2)C(=O)NC2CCCCC2)cc1)C(=O)O [PPAR-α agonist, GW7647] | moderately effective; also recorded: markedly reduced | less effective than the PPAR-δ agonist | significantly increased | significantly higher | slightly higher levels of Tau relative to all other groups | variably increased | conspicuously reduced | no clear effect | no clear effect | –
CC(C)C[C@H](NC(=O)OCC1c2ccccc2-c2ccccc21)C(=O)O [PPAR-γ agonist, F-L-Leu] | ineffective | least effective | significantly reduced | moderately reduced | – | variably increased | conspicuously reduced | – | moderately reduced | –
CCCc1c(OCCCOc2ccc(OCC(=O)O)cc2)ccc(C(C)=O)c1O [PPAR-δ agonist, L-165,041] | moderately effective; also recorded: markedly reduced | most striking therapeutic rescue | significantly increased | moderately reduced | – | variably increased | conspicuously reduced | conspicuously reduced | conspicuously reduced | 30
CN(N=O)C(=O)NC1C(O)OC(CO)C(O)C1O (centres unmarked) [STZ] | – | – | – | – | – | markedly reduced | – | – | – | –
